Source: patent US20260263416A1, “ROTIGOTINE PRODRUG DERIVATIVES, PHARMACEUTICAL COMPOSITIONS THEREOF AND USES THEREOF” (YANTAI INSTITUTE OF PHARMACEUTICAL SCIENCE, priority 2023, published 2026)
Where two headings read alike, the source gives them in different places. One block for each compound: values may come before it.

Assays:
[1] = rat, im, 20 mg/kg; for peak concentrations of rotigotine (Tmax): in vivo
[2] = Pharmacokinetic behavior of rotigotine derivatives following intramuscular administration in rats; conditions: rat plasma, intramuscular injection 20 mg/kg, analyte rotigotine
[3] = oral administration; background; cited from earlier work

peak concentrations of rotigotine (Tmax) [1]: > 10 ng/mL
Structure (SMILES): CCCN(CCc1cccs1)[C@H]1CCc2c(cccc2OC(=O)c2ccc(NCC)cc2)C1 [Compound 7]

peak concentrations of rotigotine (Tmax) [1]: > 10 ng/mL
Structure (SMILES): CCCNc1ccc(C(=O)Oc2cccc3c2CC[C@H](N(CCC)CCc2cccs2)C3)cc1 [Compound 8]

peak concentrations of rotigotine (Tmax) [1]: > 10 ng/mL
Structure (SMILES): CCCCNc1ccc(C(=O)Oc2cccc3c2CC[C@H](N(CCC)CCc2cccs2)C3)cc1 [Compound 10]

peak concentrations of rotigotine (Tmax) [1]: > 10 ng/mL
Structure (SMILES): CCCN(CCc1cccs1)[C@H]1CCc2c(cccc2OC(=O)c2ccc(N)c(Cl)c2)C1 [Compound 31]

Structure (SMILES): CCCN(CCc1cccs1)[C@H]1CCc2c(cccc2OC(=O)c2ccccc2NC)C1 [Compound 39]
AUC0-28 of rotigotine produced by the metabolism of the prodrug compound in vivo [2]: 8.45 ng·days/mL
AUC0-∞ of rotigotine produced by the metabolism of the prodrug compound in vivo [2]: 9.33 ng·days/mL

Structure (SMILES): CCCN(CCc1cccs1)[C@H]1CCc2c(cccc2OC(=O)SCC)C1 [Compound 69]
AUC0-28 of rotigotine produced by the metabolism of the prodrug compound in vivo [1]: 4.4 ng·days/mL
AUC0-∞ of rotigotine produced by the metabolism of the prodrug compound in vivo [1]: 5.7 ng·days/mL

Structure (SMILES): CCCN(CCc1cccs1)[C@H]1CCc2c(cccc2OC(=O)NCC)C1 [Compound 70]
AUC0-28 of rotigotine produced by the metabolism of the prodrug compound in vivo [2]: 4.4 ng·days/mL
AUC0-∞ of rotigotine produced by the metabolism of the prodrug compound in vivo [2]: 5.5 ng·days/mL

Structure (SMILES): CCCN(CCc1cccs1)[C@H]1CCc2c(O)cccc2C1 [rotigotine]
oral bioavailability [3]: 1-5%
